Here are results for 3 compounds from patent US7754718B2 (priority 2004, dated 2010).

SMILES strings stand for the structures. Like-named read-outs stand apart in the source and are kept apart here.

The subject of one assay is CEM cells. The experiment in a line: Cell cytotoxicity assay on CEM cells. Type of assay: cell-based. As to conditions: Homo sapiens, CCRF-CEM, concentration that inhibited 50% of cell growth, read-out: IC50 (μM) CEM. In outline: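 MT-2 and CEM cytotoxicity determined per previously reported procedures. HepG2 cells seeded at 10^4 cells/ml in MEME + 10% FBS, compound added on day 2 for 3 further days at 37° C. Viable layer stained with methylene blue, solubilized in 1% sarcosyl, A595 read.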

The test system of another assay is HepG2 cells. The experiment in a line: Cell cytotoxicity assay on HepG2 cells, methylene blue staining. Type of assay: cell-based. As to conditions: Homo sapiens, 72 h, concentration that inhibited 50% of cell growth, 3 days. The procedure:
Cytotoxicities of test compounds on MT-2 (Mellors et al., 1992 Mol. Pharmacol. 41:446-451) and CEM (Grove et al., 1995, Cancer Res. 55:3008-3011) cells were determined according to the previously reported procedures. Hepg2 cells were seeded at a density of 10^4 cells/ml/well in 24-well plates and cultured in MEME supplemented with 10% FBS at 37° C. and 5% CO2. Each test compound at different concentrations was added on the second day of the culture and the cells were incubated for another 3 days. At the end of the incubation period, the medium was removed and 0.5 ml of 0.5% methylene blue in 50% ethanol (v/v) was added to each well and set at room temperature for 30-60 minutes. The methylene blue was removed; the plates were washed with water and allowed to air dry. Once dry, 1% sarcosyl was added to dissolve the stained cell layer. The absorbance at 595 nm was measured with a microplate reader (Molecular Devices Corp. Sunnyvale, Calif.). The cytotoxicity to CEM cell was calculated as described previously (Grove et al., 1995, Cancer Res. 55 (14): 3008-3011).

In the next assay the test system is HBV. The experiment in a line: In vitro antiviral assay for HBV (Table 1). Type of assay: cell-based, Hepatitis B virus. The conditions noted are these: Hepatitis B virus, read-out: Antiviral Activities (EC50, μM) HBV.
The subject of the next assay is wt (ayw) HBV. Nature of the assay: HBV DNA inhibition in HepG2.2.15 cells, Southern blot hybridization. Type of assay: cell-based. As to conditions: Hepatitis B virus, HepG2.2.15, 144 h, read-out: EC50 (μM) wt (ayw), HepG2.2.15 cells, 6-day treatment, HBV DNA by Southern blot. As to the method:
(§1) Southern blot hybridization was used to measure the effects of compounds on HBV DNA. Total DNA from cells was extracted using Dneasy Tissue kit (Qiagen Inc. Valencia, Calif.) and separated on a 0.8% agarose gel. Separated DNA was transferred to a Hybond-N+membrane (Amersham Pharmacia Biotech Inc. Piscataway, N.J.). Inhibition of viral DNA replication was assessed by comparison of the replicative HBV DNA from drug-treated versus untreated cultures using hybridization of the membrane with a [α-^32P] dCTP labeled whole HBV DNA probe followed by autoradiography. Quantitative densitometry was performed on a Molecular Dynamics Densitometer (Amersham Pharmacia Biotech Inc. Piscataway, N.J.) using ImageQuaNT image analysis software. The integrated HBV genome was used as the internal control to normalize the amount of DNA loaded. Northern blot hybridization was used to measure the effects of the compounds on HBV RNA. Total intracellular RNA was extracted from cells using Rneasy kit (Qiagen Inc. Valencia, Calif.). RNA was separated in a 1.2% formaldehyde agarose gel and transferred to a Hybond-N+ membrane (Amersham Pharmacia Biotech Inc. Piscataway, N.J.). The membrane was hybridized with the same probe mentioned above at 65° C. followed by autoradiography. GAPDH RNA level was used as an internal control to normalize the amount of RNA loaded. The decrease of HBV core protein expression was assessed by western blot. A cellular crude extract of […] cells was separated on a 12% SDS-PAGE gel and transferred onto a nitrocellulose membrane (Bio-rad Laboratories, Hercules, Calif.). Anti-HBV core antibody (DAKO Corp. Carpinteria, Calif.) and anti rabbit IgG secondary antibody (Sigma. St. Louis, Mo.) were added. Actin protein level was used as the internal control.
Hep.G2.2.15 is a hepatoblastoma cell line stably transfected with a HBV genome (ayw strain) (Sells et al., 1987, Proc Natl Acad Sci USA. 84 (4):1005-1009). […]
The effect of helioxanthin and 22 on HBV DNA in HepG2.2.15 cells, which is stably transfected with the HBV genome, was assessed. […]

Assay [1] deals with HBV 3.5 kb, 2.4/2.1 kb transcripts. Nature of the assay: HBV RNA in HepG2.2.15 cells, Northern blot hybridization. As to conditions: for EC50: Hepatitis B virus, 144 h, read-out: EC50 for the 3.5 kb transcript. Type of assay: cell-based, Hepatitis B virus. The procedure:
as §1
Since helioxanthin and its derivatives are a unique class of chemical with anti-HBV activity, the mechanism of HBV inhibition was examined by first assessing their impact on HBV mRNA. The HepG2.2.15 cells treated with these two drugs for 6 days, then a Northern blot analysis on the total cellular RNA was performed with a HBV specific [α-^32P] dCTP labeled probe. […] Lamivudine had no effect on HBV RNA level.

Where [2] appears, read: HepG2.2.15 cells, 6 days, Northern blot.

`O=C1OCc2c1cc1ccc3c(c1c2-c1ccc2c(c1)OCO2)OCO3` [Compound 2, 10-Benzo[1,3]dioxol-5-yl-9H-furo[3′,4′:6,7]naphtho[1,2-d][1,3]dioxol-7-one, reference compound]: the IC50 in the assay with CEM cells came out at 32 µM; in the assay with HepG2 cells, 6 µM. Further, the figures for the EC50 (in the assay on HBV; in the assay with wt (ayw) HBV; in assay [1] (setting [2])) were 1 µM, about 1 µM and 90 nM, respectively. Moreover, in assay [1] (HepG2.2.15 cells, 6 days, Northern blot, listed as helioxanthin), the “effect on HBV 3.5 kb, 2.4/2.1 kb transcripts (HBV RNA level)” value (“effect on HBV 3.5 kb” for short) is “decreased 3.5 kb, 2.4/2.1 kb HBV transcripts in a dose-dependent manner”.

With `Nc1ccn([C@@H]2CS[C@H](CO)O2)c(=O)n1` [Compound 3TC, (−)-(2R,5S)-1-[2-(hydroxymethyl)oxathiolan-5-yl]cytosine], the IC50 with CEM cells and in the assay with HepG2 cells was over 100 µM each time. Moreover, the EC50 with HBV is 0.02 µM; in the assay on wt (ayw) HBV, 0.05 ± 0.03 µM. Besides, the “effect on HBV 3.5 kb” value in assay [1] is listed as “no effect”.

In the case of `COc1ccc(-c2c3c(cc4ccc5c(c24)OCO5)C(=O)NC3)cc1OC` [Compound 22, 10-(3,4-Dimethoxy-phenyl)-8,9-dihydro-1,3-dioxa-8-aza-dicyclopenta[a,g]naphthalen-7-one], the IC50 with CEM cells came to 3.6 ± 1.2 µM; in the assay on HepG2 cells, 2 µM. In addition, the EC50 in the assay on HBV was 0.9 µM; in the assay with wt (ayw) HBV, about 0.08 µM; in assay [1] (setting [2]), 1000 nM. Also, the “effect on HBV 3.5 kb” value in assay [1] (setting [2]) was “decreased 3.5 kb, 2.4/2.1 kb HBV transcripts in a dose-dependent manner”.
